Results taken from a melting point compilation (Tetko et al.; mined from patent text by program, amines drawn as free bases though some values may be those of a salt).

Row | Compound | melting point [°C]
1 | CC(=NOCCOc1ccc(CC2OC(=O)NC2=O)cc1)c1ccc(-c2ccccc2)cc1 (stereo not drawn) | 177 to 179
2 | O=C(c1ccccc1)n1c2ccccc2c2cc(O)c(O)cc21 | 260 to 261
3 | COC(=O)NNc1cc(Cl)c(C)c2c1OC(C)C2 (stereo not drawn) | 112 to 114
4 | CCC(=O)OCC1(COC(=O)CC)c2ccccc2-c2ccccc21 | 82 to 83
5 | CC(C)(C)NC(=O)N(C(=O)C1CCC2C3CC=C4C=C(C(=O)O)CCC4(C)C3CCC12C)C(C)(C)C (stereo not drawn) | 118 to 120
6 | CC(C)(C)N1C(=O)C(=O)N(c2cc(Cl)cc(Cl)c2)S1=O (stereo not drawn) | 182
7 | O=S1CCOCC1c1cccnc1 (stereo not drawn) | 74 to 76
8 | c1ccc2c(c1)cc1n2CC2(CC1)CO2 (stereo not drawn) | 104 to 107
9 | COc1cc(SC(C)C)cc(C#N)c1N | 81 to 82
10 | CC(CCC(=O)O)(c1ccc(OCc2ccc3ccc(Cl)cc3n2)cc1)c1ccc(OCc2ccc3ccc(Cl)cc3n2)cc1 | 88 to 90
11 | CCOC(=O)c1cc(NCc2ccccc2)c(Nc2ccccc2)c(S(N)(=O)=O)c1 | 160 to 161
12 | O=C(NNc1ccc(Cl)cc1)c1cnc2ccc(I)cc2c1O | 250 to 252
13 | CC(C)(C)N1CC(=O)Nc2ccc(Br)cc2C1=O | 205 to 208
14 | CC1(C(=O)C(C(O)C(Cl)(Cl)Cl)n2cncn2)CC1 (stereo not drawn) | 216 to 218
15 | Cc1ccc(C(=O)c2c(C)cc(C)cc2O)cc1 | 102 to 105
16 | CCOC(=O)c1c(-c2ccncc2)[nH]c(-c2ccncc2)c1-c1ccccc1 | 99 to 100
17 | CCOCCNC(=O)c1ccc(-c2ccc(C(CC3CCOCC3)c3ccc(S(=O)(=O)C4CC4)cc3)[nH]2)nc1 (stereo not drawn) | 87 to 90
18 | O=Cc1c(O)cccc1[N+](=O)[O-] | 52 to 53

Row | Compound | melting point [°C]
19 | O=c1[nH]c(=O)n(C2CC(F)C(CF)O2)cc1C=CBr (stereo not drawn) | 177 to 180
20 | CC(C)(C)C(=O)C(=Cc1ccc(Cl)cc1)n1cncn1 | 82
21 | CC(C)OC(=O)C(C)NC(=O)C(N)(CC(=O)O)NC(=O)C(C)C (stereo not drawn) | 176 to 178
22 | CC(=O)NC1([N+](=O)[O-])C=C(C)C=CN1 (stereo not drawn) | 146 to 149
23 | CCOCOC1(C(=O)CO)C(CC)CC2C3CC(CC)C4=CC(=O)C=CC4(C)C3C(O)CC21C (stereo not drawn) | 100 to 102
24 | C#CCSc1nn(C(=O)NS(=O)(=O)c2c(C)csc2C(=O)OCC)c(=O)n1C | 175
25 | CCCOc1ccc2c(c1)[C@H](c1ccc(OC)cc1-c1ccccc1)[C@@H](C(=O)O)[C@@H]2c1ccc2c(c1)OCO2 (racemic) | 199 to 200
26 | COC(=O)C(C)Oc1ccc(Oc2ccc3ccccc3n2)cc1 (stereo not drawn) | 95 to 100
27 | O=C(Nc1ccc(C(=O)N2Cc3cccnc3Nc3ccccc32)c(Cl)c1)c1ccccc1-c1ccccc1 | 147 to 165
28 | COC(=O)CCC(=O)c1ccc(-c2ccc(F)cc2)cc1 | 132 to 133
29 | COCc1cc(C(C)(C)C)cc(COC)c1SSc1c(COC)cc(C(C)(C)C)cc1COC | 94 to 95
30 | S=C(NCCC1=CCCCC1)Nc1nc2ccccc2[nH]1 | 178 to 180
31 | CC(C)(C)OC(=O)C1(ON=C(C(=O)O)c2ccco2)CCCC1 | 107
32 | O=c1ccoc2c(C/C=C/c3ccccc3)c(OCc3ccccc3)ccc12 | 131 to 133
33 | CC(C)(C)OC(=O)CC(=O)c1ccco1 | 74 to 75
34 | NS(=O)(=O)c1cc2sc(C=O)cc2s1 | 203 to 204
35 | CC(=O)N1CCN(c2cccc(O)c2)CC1 | 186

More lines, now with the values ahead:

Row | melting point [°C] | Compound
36 | 140 to 141 | COCC(=O)Nc1cccc(-c2ccnc(NCCc3ccc(OC)c(OC)c3)n2)c1
37 | 171 to 173 | NCCN1C(=O)CN(c2ccc3c(c2)OCO3)C1=O
38 | 144 to 146 | CCC(OCC(F)(F)F)c1ccc(Cl)c2nc3n(c12)CCCN3c1ccc(N(C)C)nc1C (stereo not drawn)
39 | 50 | CC(C)Cn1c(=O)n(C)c(=O)c2c(SCCCO)n(Cc3ccccc3CS(=O)(=O)c3ccccc3)nc21
40 | 45 to 47 | CC(=O)Nc1c(Cl)cnn1-c1c(F)c(F)c(C(F)(F)F)c(F)c1F
41 | 120 to 121 | CCCCN=c1cc2n(c(=O)n1C)CCc1cc(OC)c(OC)cc1-2
42 | 44 to 45 | CC[C@H](C)COc1ccc(O)cc1
43 | 150 | CCOC(=O)C1=C(C)NC(N=CN(C)C)=C(C(=O)OCC)C1c1cccc(Cl)c1 (stereo not drawn)
44 | 256 to 258 | CC(=O)N(c1nc2cc3nc(N(C(C)=O)N4CCN(C)CC4)sc3cc2s1)N1CCN(C)CC1
45 | 184 to 186 | CCCCCn1c(=O)c2cc(C(=O)O)cn2c2ccccc21
46 | 116 to 117 | CC(C)(C)OC(=O)NCCNC(=O)c1ncsc1-c1cccc(OCc2cccc(Cl)c2)c1
47 | 136 to 137 | CN1CCc2c(c3cc(F)ccc3n2CCc2nc(-c3ccccc3)cs2)C1
48 | 132 to 133 | CC(C)(C)[Si](OCC#Cc1ccc2ncc3c(c2c1)C(O)CCC3)(c1ccccc1)c1ccccc1 (stereo not drawn)
49 | 210 | Cn1ncc(C(=O)N2CCCC2)c1C(=O)Nc1ccc2nc(-c3ccccc3)nn2c1
50 | 93.5 to 94.5 | O=[N+]([O-])c1ccc(OCCCN2CCC(C(O)(c3ccc(F)cc3)c3ccc(F)cc3)CC2)cc1
51 | 277 to 279 | Cc1nn(-c2ccsc2)c(=O)cc1-c1ccc(OC2CCN(C3CCC3)CC2)cc1
52 | 202 to 204 | C#CCOc1cc(-n2c(=O)cc(C(F)(F)F)[nH]c2=O)ccc1C

Row | melting point [°C] | Compound
53 | 206 to 208 | O=C(CN1CCC(Oc2ccccc2)CC1)Nc1ccc2c(c1)OCC(=O)N2
54 | 175 to 177 | O=C(c1ccc(-n2ccnc2)cc1)N1CCN(S(=O)(=O)c2cc3cc(Cl)ccc3o2)CC1
55 | 113 to 115 | COC(=O)CCCC#Cc1cc(Cl)ccc1NS(=O)(=O)c1ccc2c(c1)C(C)(C)CCC2(C)C
56 | 138 | O=C(O)c1nc(-c2ccc(Cl)cc2Cl)n(-c2ccc(Cl)cc2)c1CO
57 | 168 | O=C(OCC(O)CO)c1cc(F)ccc1Nc1ccnc2cc(Cl)ccc12 (stereo not drawn)
58 | 229 to 230 | O=C(Nc1ccc(-n2nc(C(F)(F)F)cc2C(F)(F)F)cc1)Nc1ccc([N+](=O)[O-])cc1Cl
59 | 182 | CCn1ncnc1COc1nn2c(-c3c(F)cccc3F)nnc2cc1C(C)(C)C
60 | 210 to 211 | O=C(c1ccco1)c1cnn2c(-c3cccc(N4CCCC4=O)c3)ccnc12
61 | 193 to 195 | COc1ccccc1N1CCc2c1c1cccc(C)c1[nH]c2=O
62 | 166 to 167 | CCOC(C)n1c(CCc2cccc(O)c2)nc(-c2ccccc2)c1-c1ccccc1 (stereo not drawn)
63 | 130 to 131 | CCOC(=O)N1CCc2cc(OC)c(OC)cc2C(Oc2ccc(C(F)(F)F)cc2)C1 (stereo not drawn)
64 | 192 to 195 | O=C1c2ccccc2N(Cc2ccc(F)cc2)C2=NCCN12
65 | 131 to 132 | Cc1cc(C(F)(F)F)nc(-c2ccc(O)cc2)n1
66 | 153 | CCN1CCN(CCN2CC[C@H](NC(=O)c3cc(Cl)c(N)cc3OC)[C@H](OC)C2)C1=O (relative stereo)
67 | 124 to 127 | COC(=O)C(C)(C)OCc1cc2nc(C(F)(F)F)ccc2n1S(=O)(=O)c1ccc2ncsc2c1
68 | 134 to 135 | COC(=O)C1(C(=O)OC)CCC(c2c(-c3ccccc3)n(C)c3ccccc23)CC1
